Source: the supplement of paper PMC10307832

Columns and labels:
Experiment in all cases: relative viability (nuclei count vs DMSO), 5 days (fraction); higher = more cells survive
201T = tested on: 201T
In short: (§1)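 After 5 days of treatment, lung cancer cells in 1536-well plates were fixed and stained in a single step (final 0.05% Triton X-100, 1% formaldehyde, 1 ug/ml Hoechst) and their nuclei counted on 4× images. Treatment had been applied by pin tool the day after seeding as one drug alone or as a fixed anchor-drug dose with five library-drug doses (not always all listed) in √10 steps. Relative viability is the nuclei count of treated wells divided by that of vehicle wells, and values are medians of duplicate plates.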

ABC-1 = tested on: ABC-1
In short: as §1

COR-L23 = tested on: COR-L23
In short: as §1

EKVX = tested on: EKVX
In short: as §1

EPLC-272H = tested on: EPLC-272H
In short: as §1

HCC-44 = tested on: HCC-44
In short: as §1

LOU-NH91 = tested on: LOU-NH91
In short: as §1

NCI-H1563 = tested on: NCI-H1563
In short: as §1

NCI-H1650 = tested on: NCI-H1650
In short: as §1

NCI-H1734 = tested on: NCI-H1734
In short: as §1

NCI-H1793 = tested on: NCI-H1793
In short: as §1

NCI-H1993 = tested on: NCI-H1993
In short: as §1

NCI-H2023 = tested on: NCI-H2023
In short: as §1

NCI-H2085 = tested on: NCI-H2085
In short: as §1

NCI-H2170 = tested on: NCI-H2170
In short: as §1

NCI-H2347 = tested on: NCI-H2347
In short: as §1

NCI-H2405 = tested on: NCI-H2405
In short: as §1

NCI-H3122 = tested on: NCI-H3122
In short: as §1

NCI-H441 = tested on: NCI-H441
In short: as §1

NCI-H520 = tested on: NCI-H520
In short: as §1

NCI-H647 = tested on: NCI-H647
In short: as §1

PC-14 = tested on: PC-14
In short: as §1

RERF-LC-KJ = tested on: RERF-LC-KJ
In short: as §1

With `Clc1ccc(Nc2nnc(Cc3ccncc3)c3ccccc23)cc1` [Vatalanib] + CS(=O)(=O)N1CCN(Cc2cc3nc(-c4cccc5[nH]ncc45)nc(N4CCOCC4)c3s2)CC1 [Pictilisib] (partner 1 µM) the relative viability (201T; first compound 0.04 µM) was 0.694, the relative viability (201T; first compound 0.1265 µM) was 0.667 and the relative viability (201T; first compound 0.4 µM) was 0.706. For the same compound, the relative viability (201T; first compound 1.265 µM) was 0.663, the relative viability (201T; first compound 4 µM) was 0.722 and the relative viability (ABC-1; first compound 0.04 µM) was 0.888. The relative viability (ABC-1; first compound 0.1265 µM) was 0.78, the relative viability (ABC-1; first compound 0.4 µM) was 0.877 and the relative viability (ABC-1; first compound 1.265 µM) was 0.71. The relative viability (ABC-1; first compound 4 µM) was 0.784, the relative viability (COR-L23; first compound 0.04 µM) was 0.992 and the relative viability (COR-L23; first compound 0.1265 µM) was 0.745. The relative viability (COR-L23; first compound 0.4 µM) was 0.854, the relative viability (COR-L23; first compound 1.265 µM) was 0.758 and the relative viability (COR-L23; first compound 4 µM) was 0.64. For the same compound, the relative viability (EKVX; first compound 0.04 µM) was 0.39, the relative viability (EKVX; first compound 0.1265 µM) was 0.463 and the relative viability (EKVX; first compound 0.4 µM) was 0.391. The relative viability (EKVX; first compound 1.265 µM) was 0.344, the relative viability (EKVX; first compound 4 µM) was 0.396 and the relative viability (EPLC-272H; first compound 0.04 µM) was 0.35. For the same compound, the relative viability (EPLC-272H; first compound 0.1265 µM) was 0.309, the relative viability (EPLC-272H; first compound 0.4 µM) was 0.151 and the relative viability (EPLC-272H; first compound 1.265 µM) was 0.332. For the same compound, the relative viability (EPLC-272H; first compound 4 µM) was 0.344, the relative viability (HCC-44; first compound 0.04 µM) was 0.704 and the relative viability (HCC-44; first compound 0.1265 µM) was 0.684. The relative viability (HCC-44; first compound 0.4 µM) was 0.63, the relative viability (HCC-44; first compound 1.265 µM) was 0.644 and the relative viability (HCC-44; first compound 4 µM) was 0.613. It also gave a relative viability (LOU-NH91; first compound 0.04 µM) of 0.512, a relative viability (LOU-NH91; first compound 0.1265 µM) of 0.541 and a relative viability (LOU-NH91; first compound 0.4 µM) of 0.461. It also gave a relative viability (LOU-NH91; first compound 1.265 µM) of 0.503, a relative viability (LOU-NH91; first compound 4 µM) of 0.517 and a relative viability (NCI-H1563; first compound 0.04 µM) of 0.634. It also gave a relative viability (NCI-H1563; first compound 0.1265 µM) of 0.677, a relative viability (NCI-H1563; first compound 0.4 µM) of 0.685 and a relative viability (NCI-H1563; first compound 1.265 µM) of 0.673. The relative viability (NCI-H1563; first compound 4 µM) was 0.652, the relative viability (NCI-H1650; first compound 0.04 µM) was 0.612 and the relative viability (NCI-H1650; first compound 0.1265 µM) was 0.556. For the same compound, the relative viability (NCI-H1650; first compound 0.4 µM) was 0.578, the relative viability (NCI-H1650; first compound 1.265 µM) was 0.55 and the relative viability (NCI-H1650; first compound 4 µM) was 0.592. The relative viability (NCI-H1734; first compound 0.04 µM) was 0.478, the relative viability (NCI-H1734; first compound 0.1265 µM) was 0.471 and the relative viability (NCI-H1734; first compound 0.4 µM) was 0.503. For the same compound, the relative viability (NCI-H1734; first compound 1.265 µM) was 0.45, the relative viability (NCI-H1734; first compound 4 µM) was 0.465 and the relative viability (NCI-H1793; first compound 0.04 µM) was 0.218. The relative viability (NCI-H1793; first compound 0.1265 µM) was 0.326, the relative viability (NCI-H1793; first compound 0.4 µM) was 0.382 and the relative viability (NCI-H1793; first compound 1.265 µM) was 0.293. For the same compound, the relative viability (NCI-H1793; first compound 4 µM) was 0.347, the relative viability (NCI-H1993; first compound 0.04 µM) was 0.782 and the relative viability (NCI-H1993; first compound 0.1265 µM) was 0.898. It also gave a relative viability (NCI-H1993; first compound 0.4 µM) of 0.847, a relative viability (NCI-H1993; first compound 1.265 µM) of 0.816 and a relative viability (NCI-H1993; first compound 4 µM) of 0.887. The relative viability (NCI-H2023; first compound 0.04 µM) was 0.252, the relative viability (NCI-H2023; first compound 0.1265 µM) was 0.255 and the relative viability (NCI-H2023; first compound 0.4 µM) was 0.318. The relative viability (NCI-H2023; first compound 1.265 µM) was 0.218, the relative viability (NCI-H2023; first compound 4 µM) was 0.226 and the relative viability (NCI-H2085; first compound 0.04 µM) was 0.424. For the same compound, the relative viability (NCI-H2085; first compound 0.1265 µM) was 0.524, the relative viability (NCI-H2085; first compound 0.4 µM) was 0.44 and the relative viability (NCI-H2085; first compound 1.265 µM) was 0.469. For the same compound, the relative viability (NCI-H2085; first compound 4 µM) was 0.438, the relative viability (NCI-H2170; first compound 0.04 µM) was 0.319 and the relative viability (NCI-H2170; first compound 0.1265 µM) was 0.331. It also gave a relative viability (NCI-H2170; first compound 0.4 µM) of 0.329, a relative viability (NCI-H2170; first compound 1.265 µM) of 0.356 and a relative viability (NCI-H2170; first compound 4 µM) of 0.306. For the same compound, the relative viability (NCI-H2347; first compound 0.04 µM) was 0.709, the relative viability (NCI-H2347; first compound 0.1265 µM) was 0.723 and the relative viability (NCI-H2347; first compound 0.4 µM) was 0.409. For the same compound, the relative viability (NCI-H2347; first compound 1.265 µM) was 0.92, the relative viability (NCI-H2347; first compound 4 µM) was 0.319 and the relative viability (NCI-H2405; first compound 0.04 µM) was 0.506. It also gave a relative viability (NCI-H2405; first compound 0.1265 µM) of 0.429, a relative viability (NCI-H2405; first compound 1.265 µM) of 0.352 and a relative viability (NCI-H2405; first compound 4 µM) of 0.493. For the same compound, the relative viability (NCI-H3122; first compound 0.04 µM) was 0.66, the relative viability (NCI-H3122; first compound 0.1265 µM) was 0.534 and the relative viability (NCI-H3122; first compound 0.4 µM) was 0.646. The relative viability (NCI-H3122; first compound 1.265 µM) was 0.573, the relative viability (NCI-H3122; first compound 4 µM) was 0.593 and the relative viability (NCI-H441; first compound 0.04 µM) was 0.561. The relative viability (NCI-H441; first compound 0.1265 µM) was 0.4, the relative viability (NCI-H441; first compound 0.4 µM) was 0.592 and the relative viability (NCI-H441; first compound 1.265 µM) was 0.474. It also gave a relative viability (NCI-H441; first compound 4 µM) of 0.501, a relative viability (NCI-H520; first compound 0.04 µM) of 0.312 and a relative viability (NCI-H520; first compound 0.1265 µM) of 0.277. It also gave a relative viability (NCI-H520; first compound 0.4 µM) of 0.34, a relative viability (NCI-H520; first compound 1.265 µM) of 0.306 and a relative viability (NCI-H520; first compound 4 µM) of 0.308. The relative viability (NCI-H647; first compound 0.04 µM) was 0.387, the relative viability (NCI-H647; first compound 0.1265 µM) was 0.42 and the relative viability (NCI-H647; first compound 1.265 µM) was 0.385. It also gave a relative viability (NCI-H647; first compound 4 µM) of 0.4, a relative viability (PC-14; first compound 0.04 µM) of 0.832 and a relative viability (PC-14; first compound 0.1265 µM) of 0.712. The relative viability (PC-14; first compound 0.4 µM) was 0.693, the relative viability (PC-14; first compound 1.265 µM) was 0.69 and the relative viability (PC-14; first compound 4 µM) was 0.679. For the same compound, the relative viability (RERF-LC-KJ; first compound 0.04 µM) was 0.486, the relative viability (RERF-LC-KJ; first compound 0.1265 µM) was 0.579 and the relative viability (RERF-LC-KJ; first compound 0.4 µM) was 0.745. It also gave a relative viability (RERF-LC-KJ; first compound 1.265 µM) of 0.422 and a relative viability (RERF-LC-KJ; first compound 4 µM) of 0.481.
